Measured values reported in the supplement of paper PMC8967900.

Tests used:
Experiment in all cases: selective drug sensitivity score (sDSS, relative to normal bone marrow) (sDSS (score)); higher = more potent and effective on the cell line relative to normal bone marrow cells
Details in all cases: 72 h
ALL-SIL = test system: ALL-SIL
RCH-ACV = test system: RCH-ACV
DND-41 = test system: DND-41
P12-ICHIKAWA = test system: P12-ICHIKAWA
CCRF-CEM = test system: CCRF-CEM
697 = test system: 697
ALL-PO = test system: ALL-PO
NALM-6 = test system: NALM-6
COG-LL-317 = test system: COG-LL-317
MHH-CALL-3 = test system: MHH-CALL-3
JURKAT = test system: JURKAT
RPMI-8402 = test system: RPMI-8402
LC4-1 = test system: LC4-1
KASUMI-2 = test system: KASUMI-2
KASUMI-10 = test system: KASUMI-10
NALM-16 = test system: NALM-16
380 = test system: 380
COG-LL-332h = test system: COG-LL-332h
COG-LL-394h = test system: COG-LL-394h
COG-LL-402h = test system: COG-LL-402h
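Also: ALL cell lines in 384-well plates, five doses spanning 10,000-fold, each plate scaled between vehicle and 100 µmol/L benzalkonium chloride controls, sDSS an adapted area-under-curve metric.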

SMILES	selective drug sensitivity score (ALL-SIL)	selective drug sensitivity score (RCH-ACV)	selective drug sensitivity score (DND-41)	selective drug sensitivity score (P12-ICHIKAWA)	selective drug sensitivity score (CCRF-CEM)	selective drug sensitivity score 697	selective drug sensitivity score (ALL-PO)	selective drug sensitivity score (NALM-6)	selective drug sensitivity score (COG-LL-317)	selective drug sensitivity score (MHH-CALL-3)	selective drug sensitivity score (JURKAT)	selective drug sensitivity score (RPMI-8402)	selective drug sensitivity score (LC4-1)	selective drug sensitivity score (KASUMI-2)	selective drug sensitivity score (KASUMI-10)	selective drug sensitivity score (NALM-16)	selective drug sensitivity score 380	selective drug sensitivity score (COG-LL-332h)	selective drug sensitivity score (COG-LL-394h)	selective drug sensitivity score (COG-LL-402h)
O=C(CCCCCCNC(=O)c1cnc(N(c2ccccc2)c2ccccc2)nc1)NO [Rocilinostat] (top concentration 10000 nM)	9.14	9.24	3.54	5.34	4.64	5.84	5.84	4.84	5.14	14.5	2.74	4.64	8.24	10.2	4.24	3.34	8.54	3.34	3.74	8.14
CN1CCC(CNc2ccc3ncc(-c4cccc(OC(F)(F)F)c4)n3n2)CC1 [SGI-1776] (top concentration 10000 nM)	-1.48	0.62	-1.18	-2.98	0.52	-0.68	7.02	-3.08	0.02	-3.98	-3.28	-2.68	-1.08	0.62	4.82	-1.38	-2.38	0.22	0.82	-2.48
O=C(/C=C\n1cnc(-c2cc(C(F)(F)F)cc(C(F)(F)F)c2)n1)NNc1cnccn1 [Selinexor] (top concentration 10000 nM)	9.88	13.7	14.6	10.1	9.38	12.4	13.5	13	17.4	24.5	12.8	12.3	7.78	16.7	3.78	0.48	18.1	9.68	5.78	11.7
Cn1cnc2c(F)c(Nc3ccc(Br)cc3Cl)c(C(=O)NOCCO)cc21 [Selumetinib] (top concentration 10000 nM)	-4.1	-3.7	0.4	0.3	2	-1	-2.8	5	-3.5	15.4	-3.5	-4.1	0.7	7.5	-3.5	-1.3	9.6	-2.3	-3	-2.3
COCC[n+]1c2c(n(Cc3cnccn3)c1C)C(=O)c1ccccc1C2=O [Sepantronium_bromide] (top concentration 10000 nM)	-3.26	17.9	-7.46	4.14	8.44	22.8	4.44	22.3	13.3	22.3	14.2	7.64	22.3	19.5	18.6	22.2	22	14.2	-11.7	22.8
O=C(O)c1ccc2c(c1)nc(Nc1cccc(Cl)c1)c1ccncc12 [Silmitasertib] (top concentration 10000 nM)	6.2	0.8	3.6	0.6	4.1	3.5	1.9	4	4	-1.4	3.2	3.3	3.9	-1.4	3.8	-1.4	7.7	4	2.3	0.2
CO[C@H]1C[C@@H]2CC[C@@H](C)[C@@](O)(O2)C(=O)C(=O)N2CCCC[C@H]2C(=O)O[C@H]([C@H](C)C[C@@H]2CC[C@@H](O)[C@H](OC)C2)CC(=O)[C@H](C)/C=C(\C)[C@@H](O)[C@@H](OC)C(=O)[C@H](C)C[C@H](C)/C=C/C=C/C=C/1C [Sirolimus] (top concentration 100 nM)	-0.86	11.1	-0.16	-2.46	3.34	6.34	0.14	-2.86	0.74	5.74	-1.96	-1.76	1.74	2.84	-3.76	-2.26	17.4	3.04	-3.76	0.04
COCCNCc1ccc(-c2cc3nccc(Oc4ccc(NC(=O)C5(C(=O)Nc6ccc(F)cc6)CC5)cc4F)c3s2)nc1 [Sitravatinib] (top concentration 2500 nM)	15.9	7.38	0.98	0.08	0.18	1.58	14.8	-0.12	-0.42	-0.42	0.38	2.38	1.28	-0.42	20	2.78	2.18	5.98	3.08	1.78
CCN(CC)CCNC(=O)c1c(C)[nH]c(/C=C2\C(=O)Nc3ccc(F)cc32)c1C [Sunitinib] (top concentration 1000 nM)	0.76	1.46	-1.44	-1.34	-1.44	1.16	14.2	-1.44	-1.44	-1.44	-1.44	-1.24	-0.84	-1.44	10.4	-1.04	-1.44	-1.44	-0.34	-1.44
CC(C)Oc1ccc(-c2nn([C@@H](C)c3oc4ccc(F)cc4c(=O)c3-c3cccc(F)c3)c3ncnc(N)c23)cc1F [TGR-1202] (top concentration 2500 nM)	-0.36	9.14	2.74	-2.56	-1.16	0.44	3.84	-1.16	-2.56	-2.56	-2.56	-2.06	-1.76	-2.36	-2.56	2.24	-2.56	-1.56	-1.46	-1.96
CN(C(=O)c1ccc(F)cc1C(F)(F)F)C1CCN(c2nnc(-c3ccnn3C)c3ccccc23)CC1 [Taladegib] (top concentration 10000 nM)	0.08	-0.52	-1.12	-0.22	-0.82	1.88	-0.52	2.68	-1.12	-0.32	2.78	2.38	4.58	11	-1.12	0.88	4.08	1.08	2.08	-1.12
COc1cc(Nc2ncc(F)c(Nc3ccc4c(n3)NC(=O)C(C)(C)O4)n2)cc(OC)c1OC [Tamatinib] (top concentration 10000 nM)	-5.42	14	-1.82	-5.02	-5.42	1.28	9.98	-5.42	-5.42	-5.42	-5.42	0.68	1.28	-5.42	8.58	-1.42	-5.42	-0.22	-5.42	-1.22
Nc1cc(F)ccc1NC(=O)c1ccc(CNC(=O)/C=C/c2cccnc2)cc1 [Tucidinostat] (top concentration 10000 nM)	10.4	11.1	1.04	4.04	2.44	6.34	2.94	-0.36	2.74	11.4	1.34	2.94	3.94	8.84	3.04	-0.36	12.5	-2.76	-3.86	5.34
CN[C@@H]1C[C@H]2O[C@@](C)([C@@H]1OC)n1c3ccccc3c3c4c(c5c6ccccc6n2c5c31)C(=O)N[C@H]4O [UCN-01] (top concentration 10000 nM)	3.14	18	7.44	5.94	6.04	12.9	8.64	4.94	11.8	6.24	0.34	5.24	1.54	2.84	6.94	0.74	13.5	1.44	-1.46	8.94
CC(C)Nc1cc(-c2c[nH]c(C(=O)N[C@H](CO)c3cccc(Cl)c3)c2)c(Cl)cn1 [Ulixertinib] (top concentration 10000 nM)	3.02	2.82	4.72	1.22	2.82	1.62	6.72	0.12	-4.38	-4.38	-1.08	-1.38	0.32	7.82	-3.08	3.22	-4.38	1.92	-0.18	-0.38
Cn1ncc(Cl)c1-c1cc(C(=O)N[C@H](CN)Cc2ccc(F)c(F)c2)oc1Cl [Uprosertib] (top concentration 10000 nM)	1.5	8.3	-1.3	1.9	10.4	0.3	9	2.9	18.8	-1.4	5.9	3.4	-1.2	8.3	-1.4	5.4	0.6	5.7	-0.6	1.7
C=CC(=O)N1CC/C(=C\c2ccc(F)c([N+](=O)[O-])c2)C(=O)/C(=C/c2ccc(F)c([N+](=O)[O-])c2)C1 [VLX1570] (top concentration 10000 nM)	-3.62	1.58	1.18	-4.92	1.58	-1.02	0.38	4.08	2.78	5.98	-8.52	-6.52	0.68	-2.62	1.58	-3.72	6.88	-0.52	-1.92	5.28
C[C@@H]1COC(Nc2ccc3ncnc(Nc4ccc(OCc5nccs5)c(Cl)c4)c3c2)=N1 [Varlitinib] (top concentration 10000 nM)	2.92	5.92	-0.18	3.02	-0.18	3.82	5.12	-0.18	-0.18	-0.18	-0.18	4.92	20.2	-0.18	-0.18	0.92	18.5	2.12	-0.18	-0.18
